Data published in ChEMBL document CHEMBL4433231 (Bioorg Med Chem Lett, 2019).

What follows are molecules tested against Vitamin K epoxide reductase complex subunit 1 (Homo sapiens, UniProt Q9BQB6) (assay: Inhibition of VKOR (unknown origin) in HEK293 expressing FIXgla-PC incubated for 48 hrs by ELISA).
Assay type: cell-based

Vitamin K epoxide reductase complex subunit 1, sequence (Q9BQB6 whole entry, one chain of several): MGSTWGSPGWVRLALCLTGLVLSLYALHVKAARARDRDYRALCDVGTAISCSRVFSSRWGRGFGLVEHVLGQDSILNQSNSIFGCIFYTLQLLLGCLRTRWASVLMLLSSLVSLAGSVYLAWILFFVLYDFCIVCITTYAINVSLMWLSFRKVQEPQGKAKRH

Row | SMILES | IC50
1 | CC(=O)CC(c1c(O)c2ccccc2oc1=O)C1CCCCCCC1 (racemic) | 59 nM
2 | CC(=O)CC(C1=C/C=C(C(=O)O)\C=C/C=C\1)c1c(O)c2ccccc2oc1=O (racemic) | 1930 nM
3 | CC(=O)CC(c1c(O)c2ccccc2oc1=O)C1CCCCC1 (racemic) | 90.2 nM
4 | C[C@]1(O)C[C@H](C2=C/C=C\C=C/C=C\2)[C@]2(COc3ccccc3C2=O)n2c(=O)n(-c3ccccc3)c(=O)n21 | 58.2 nM
5 | CC1(O)CC(C2=C/C=C\C=C/C=C\2)c2c(c3ccccc3oc2=O)O1 (racemic) | 4.5 nM
